# Several values for one entry are separate records, joined by “and”; a condition that tells them apart may be missing. Equal entries are not always repeated.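 Assay format: 96-well plates, 48-hour exposure. Abbreviation: GI50, concentration required for 50% inhibition of growth. At the TGI there is no net growth.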
# Tests used:
# Test in all cases: NCI anticancer screen, dose series, 48 h
# HCT-15 colon = tested on: HCT-15 colon
# HCT-116 colon = tested on: HCT-116 colon
# MCF7 breast = tested on: MCF7 breast
# OVCAR-4 ovarian = tested on: OVCAR-4 ovarian
# OVCAR-5 ovarian = tested on: OVCAR-5 ovarian
# SF-295 CNS = tested on: SF-295 CNS
# OVCAR-8 ovarian = tested on: OVCAR-8 ovarian
# NCI-H226 lung = tested on: NCI-H226 lung
# SK-MEL-5 melanoma = tested on: SK-MEL-5 melanoma
# 786-0 renal = tested on: 786-0 renal
SMILES,TGI (HCT-15 colon),TGI (HCT-116 colon),TGI (MCF7 breast),TGI (OVCAR-4 ovarian),TGI (OVCAR-5 ovarian),TGI (SF-295 CNS),TGI (OVCAR-8 ovarian),TGI (NCI-H226 lung),TGI (SK-MEL-5 melanoma),TGI (786-0 renal),GI50 (HCT-15 colon),GI50 (HCT-116 colon),GI50 (MCF7 breast),GI50 (OVCAR-4 ovarian),GI50 (OVCAR-5 ovarian),GI50 (SF-295 CNS),GI50 (OVCAR-8 ovarian),GI50 (NCI-H226 lung),GI50 (SK-MEL-5 melanoma),GI50 (786-0 renal)
COc1cc(OC(=O)c2ccccc2)cc2c1C(=O)C=CC2=O,31.4 µM,13.5 µM,52 µM,12.3 µM,54.5 µM,32.1 µM,63.3 µM,49.4 µM,30.6 µM,18.9 µM,,,,,,,,,,
N#CC(NC12CC3CC(CC(C3)C1)C2)c1ccc2c(c1)OCO2 (centres undefined),> 100 µM,> 100 µM,> 100 µM,> 100 µM,> 100 µM,> 100 µM,> 100 µM,> 100 µM,> 100 µM,> 100 µM,,,,,,,,,,
CC(C)N(Cc1ccccc1)c1c(S)ssc1=S,13.5 µM,26.8 µM,5.02 µM,> 100 µM,> 100 µM,11.7 µM,22.2 µM,36.1 µM,2.82 µM,> 100 µM,3.16 µM,2.72 µM,1.57 µM,0.641 µM,3.56 µM,1.19 µM,2.44 µM,3.14 µM,0.605 µM,3.65 µM
COc1cc(NC(C)CCCNC2CN3CCC2CC3)c2ncccc2c1 (centres undefined),27.3 µM,13.9 µM,3.58 µM,6.51 µM,28.3 µM,27.7 µM,30.1 µM,27.7 µM,5.6 µM,27.1 µM,11.5 µM,3.75 µM,1.64 µM,1.84 µM,14.5 µM,11.6 µM,13.7 µM,13.6 µM,2.23 µM,13.4 µM
O=C(CCCCCCCCC(=O)N/N=C\c1ccccc1O)N/N=C\c1ccccc1O,> 100 µM,15.2 µM,> 100 µM,> 100 µM,> 90.3 µM,31.7 µM,5.8 µM,11 µM,1.12 µM,1.99 µM,0.298 µM,0.459 µM,1.99 µM,0.33 µM,3.35 µM,1.07 µM,0.349 µM,0.49 µM,0.231 µM,0.334 µM
COC(=O)c1nc(-c2ccccc2)oc1S(=O)(=O)Cc1ccccc1,3.58 µM,6.23 µM,11.1 µM,3.4 µM,11.3 µM,36.3 µM,28.2 µM,31.4 µM,,11 µM,1.79 µM,2.58 µM,2.72 µM,1.82 µM,3.12 µM,16.5 µM,12.1 µM,13.9 µM,,3.25 µM
CC1CCC(NC(=O)N(CCCl)N=O)CC1 (centres undefined),43.4 µM and 82.8 µM,90.4 µM and 85.6 µM,110 µM,61.1 µM,105 µM,36.3 µM,47.3 µM and 120 µM,150 µM,> 87.5 µM,32.4 µM and 64.2 µM,20.6 µM,30.2 µM,,,,53.7 µM,20 µM,36.1 µM,29.8 µM,13.9 µM
COc1cc(C[C@H]2c3cc(OC)c(OC)cc3CCN2C)c(Oc2cc3c(cc2OC)-c2c(OC)c(OC)cc4c2[C@H](C3)N(C)CC4)cc1OC,26.4 µM and 23.4 µM,14 µM and 22.4 µM,27.8 µM,23.9 µM and 28.6 µM,33.6 µM and 32.6 µM,21 µM and 30.7 µM,18.5 µM and 35 µM,29.4 µM and 34.6 µM,11.1 µM and 3.58 µM,14.1 µM and 21.9 µM,10.8 µM,10.4 µM,,14.6 µM,18 µM,16.5 µM,17 µM,19.7 µM,1.97 µM,8.97 µM
COc1ccc2c(c1)c(=O)oc1cc(OC/C(C)=N\O)ccc12,> 100 µM,> 100 µM,> 100 µM,> 100 µM,> 100 µM,> 100 µM,> 100 µM,> 100 µM,> 100 µM,> 100 µM,> 100 µM,> 100 µM,> 100 µM,> 100 µM,> 100 µM,37.9 µM,> 100 µM,> 100 µM,> 100 µM,> 100 µM
CCC1C2Cc3ccc(O)cc3C1(CC)CCN2C (centres undefined),> 100 µM,> 100 µM,> 100 µM,> 100 µM,> 100 µM,> 100 µM,> 100 µM,> 100 µM,> 100 µM,> 100 µM,,,,,,,,,,
COc1ccc(C2=CC(c3ccc4c(c3)OCO4)c3c(c4ccccc4oc3=O)O2)cc1OC (centres undefined),> 31.6 µM,> 100 µM,> 100 µM,> 100 µM,> 100 µM,> 100 µM,> 100 µM,6.72 µM,> 100 µM,> 100 µM,,,,,,,,,,
CC(C)(C)n1cc(-c2ccnc(NCCCNS(=O)(=O)c3ccc(C(F)(F)F)cc3)c2)c(-c2cccc(O)c2)n1,2.93 µM,3.08 µM,3.63 µM,5.25 µM,3.4 µM,3.12 µM,6.44 µM,5.71 µM,2.97 µM,3.38 µM,1.47 µM,1.55 µM,1.78 µM,2.29 µM,1.81 µM,1.69 µM,2.46 µM,2.35 µM,1.6 µM,1.8 µM
CCN(CC)CCCC(C)Nc1ccnc2cc(Oc3ccccc3)ccc12 (centres undefined),28.3 µM and 20.1 µM,13.1 µM and 21.9 µM,26.5 µM and 19.4 µM,41.7 µM and 59.2 µM,41.3 µM and 44.1 µM,17.4 µM and 19 µM,14.6 µM and 38.5 µM,31.1 µM and > 100 µM,3.22 µM and 3.37 µM,11.6 µM and 17.4 µM,4.34 µM and 3.94 µM,2.59 µM and 3.03 µM,8.46 µM and 6.01 µM,9.78 µM and 16 µM,13.1 µM and 13.4 µM,2.69 µM and 4.09 µM,3.62 µM and 9.15 µM,8.4 µM and 14.9 µM,1.69 µM and 1.8 µM,4.53 µM and 5.09 µM
CN(C)CCN1C(=O)c2ccccc2N(C)c2ccccc21,> 100 µM,> 100 µM,> 100 µM,> 100 µM,> 100 µM,> 100 µM,> 100 µM,> 100 µM,> 100 µM,> 100 µM,> 100 µM,> 100 µM,> 100 µM,> 100 µM,> 100 µM,> 100 µM,> 100 µM,> 100 µM,> 100 µM,> 100 µM
COc1cc([C@@H]2OC[C@@H]3C(c4cc(OC)c5c(c4)OCO5)OC[C@@H]32)cc(OC)c1OC (some centres undefined),> 100 µM,> 100 µM,> 100 µM,> 100 µM,> 100 µM,> 100 µM,> 100 µM,> 100 µM,> 100 µM,> 100 µM,,,,,,,,,,
